Measured values as given in PubChem BioAssay AID1259407 (Chemical Carcinogenesis Research Information System (CCRIS), 2018).
Active and inactive are the calls of the source. The rule behind the calls is not given here.

Test system: CCRIS mutagenicity, Ames/micronucleus/aberration tests
Test: CCRIS mutagenicity studies
[1] = Test System: AMES SALMONELLA TYPHIMURIUM, Strain/Indicator: TA100, Metabolic Activation: NONE, Method: PREINCUBATION
[2] = Test System: AMES SALMONELLA TYPHIMURIUM, Strain/Indicator: TA100, Metabolic Activation: NONE, Method: STANDARD PLATE
[3] = Test System: AMES SALMONELLA TYPHIMURIUM, Strain/Indicator: TA1535, Metabolic Activation: NONE, Method: PREINCUBATION
[4] = Test System: AMES SALMONELLA TYPHIMURIUM, Strain/Indicator: TA1535, Metabolic Activation: NONE, Method: STANDARD PLATE
[5] = Test System: AMES SALMONELLA TYPHIMURIUM, Strain/Indicator: TA97, Metabolic Activation: NONE, Method: PREINCUBATION
[6] = Test System: AMES SALMONELLA TYPHIMURIUM, Strain/Indicator: TA98, Metabolic Activation: NONE, Method: PREINCUBATION
[7] = Test System: AMES SALMONELLA TYPHIMURIUM, Strain/Indicator: TA97, Metabolic Activation: HAMSTER, LIVER, S-9, AROCLOR 1254 (10%), Method: PREINCUBATION
[8] = Test System: AMES SALMONELLA TYPHIMURIUM, Strain/Indicator: TA97, Metabolic Activation: RAT, LIVER, S-9, AROCLOR 1254 (10%), Method: PREINCUBATION
[9] = Test System: AMES SALMONELLA TYPHIMURIUM, Strain/Indicator: TA98, Metabolic Activation: RAT, LIVER, S-9, AROCLOR 1254 (10%), Method: PREINCUBATION
[10] = Test System: AMES SALMONELLA TYPHIMURIUM, Strain/Indicator: TA100, Metabolic Activation: HAMSTER, LIVER, S-9, AROCLOR 1254 (10%), Method: PREINCUBATION
[11] = Test System: AMES SALMONELLA TYPHIMURIUM, Strain/Indicator: TA100, Metabolic Activation: RAT, LIVER, S-9, AROCLOR 1254 (10%), Method: PREINCUBATION
[12] = Test System: AMES SALMONELLA TYPHIMURIUM, Strain/Indicator: TA1535, Metabolic Activation: HAMSTER, LIVER, S-9, AROCLOR 1254 (10%), Method: PREINCUBATION
[13] = Test System: AMES SALMONELLA TYPHIMURIUM, Strain/Indicator: TA1535, Metabolic Activation: RAT, LIVER, S-9, AROCLOR 1254 (10%), Method: PREINCUBATION

## Cc1ccc(CCC2CO2)cc1 (configuration not stated)
[1]
  mutagenic call: inactive; negative
[2]
  mutagenic call: active; positive
[3]
  mutagenic call: inactive; negative
[4]
  mutagenic call: active; positive

## ClCCNCCCNc1c2ccccc2nc2c1ccc1cccnc12
Test System: AMES SALMONELLA TYPHIMURIUM, Strain/Indicator: TA98, Metabolic Activation: NONE, Method: STANDARD PLATE
  mutagenic call: active; positive
[2]
  mutagenic call: active; positive
[4]
  mutagenic call: inactive; negative
Test System: AMES SALMONELLA TYPHIMURIUM, Strain/Indicator: TA1536, Metabolic Activation: NONE, Method: STANDARD PLATE
  mutagenic call: active; positive
Test System: AMES SALMONELLA TYPHIMURIUM, Strain/Indicator: TA1537, Metabolic Activation: NONE, Method: STANDARD PLATE
  mutagenic call: active; positive
Test System: AMES SALMONELLA TYPHIMURIUM, Strain/Indicator: TA1538, Metabolic Activation: NONE, Method: STANDARD PLATE
  mutagenic call: active; positive

## Nc1ccccc1C(=O)OCCc1ccccc1
Test System: AMES SALMONELLA TYPHIMURIUM, Strain/Indicator: TA97, Metabolic Activation: HAMSTER, LIVER, S-9, AROCLOR 1254 (10 OR 30%), Method: PREINCUBATION
  mutagenic call: inactive; negative
[5]
  mutagenic call: inactive; negative
Test System: AMES SALMONELLA TYPHIMURIUM, Strain/Indicator: TA97, Metabolic Activation: RAT, LIVER, S-9, AROCLOR 1254 (10 OR 30%), Method: PREINCUBATION
  mutagenic call: inactive; negative
Test System: AMES SALMONELLA TYPHIMURIUM, Strain/Indicator: TA98, Metabolic Activation: HAMSTER, LIVER, S-9, AROCLOR 1254 (10 OR 30%), Method: PREINCUBATION
  mutagenic call: inactive; negative
[6]
  mutagenic call: inactive; negative
Test System: AMES SALMONELLA TYPHIMURIUM, Strain/Indicator: TA98, Metabolic Activation: RAT, LIVER, S-9, AROCLOR 1254 (10 OR 30%), Method: PREINCUBATION
  mutagenic call: inactive; negative
Test System: AMES SALMONELLA TYPHIMURIUM, Strain/Indicator: TA100, Metabolic Activation: HAMSTER, LIVER, S-9, AROCLOR 1254 (10 OR 30%), Method: PREINCUBATION
  mutagenic call: inactive; negative
[1]
  mutagenic call: inactive; negative
Test System: AMES SALMONELLA TYPHIMURIUM, Strain/Indicator: TA100, Metabolic Activation: RAT, LIVER, S-9, AROCLOR 1254 (10 OR 30%), Method: PREINCUBATION
  mutagenic call: inactive; negative
Test System: AMES SALMONELLA TYPHIMURIUM, Strain/Indicator: TA1535, Metabolic Activation: HAMSTER, LIVER, S-9, AROCLOR 1254 (10 OR 30%), Method: PREINCUBATION
  mutagenic call: inactive; negative
[3]
  mutagenic call: inactive; negative
Test System: AMES SALMONELLA TYPHIMURIUM, Strain/Indicator: TA1535, Metabolic Activation: RAT, LIVER, S-9, AROCLOR 1254 (10 OR 30%), Method: PREINCUBATION
  mutagenic call: inactive; negative

## O[C@@H]1C=Cc2c(cc3ccc4cccc5c6ccccc6c2c3c45)[C@H]1O
Test System: CHINESE HAMSTER V-79, Strain/Indicator: V-79 (HPRT)/6-THIOGUANINE, Metabolic Activation: HUMAN MAMMARY CARCINOMA MCF-7 CELLS
  mutagenic call: active; positive
Test System: CHINESE HAMSTER V-79, Strain/Indicator: V-79, Metabolic Activation: RAT, LIVER, S-9, AROCLOR 1254
  mutagenic call: active; positive

## NC(=O)N(CCC(=O)O)N=O
[1]
  mutagenic call: active; positive
[3]
  mutagenic call: active; positive
Test System: E. COLI B, Strain/Indicator: H/R30R, Metabolic Activation: NONE
  mutagenic call: active; positive
Test System: E. COLI B, Strain/Indicator: HS30R, Metabolic Activation: NONE
  mutagenic call: active; positive

## C[C@H](CCC(=O)O)[C@H]1CC[C@H]2[C@@H]3CC[C@@H]4C[C@H](O)CC[C@]4(C)[C@H]3C[C@H](O)[C@]12C
[6]
  mutagenic call: inactive; negative
Test System: AMES SALMONELLA TYPHIMURIUM, Strain/Indicator: TA98, Method: PREINCUBATION
  mutagenic call: inactive; negative
[2]
  mutagenic call: inactive; negative
Test System: AMES SALMONELLA TYPHIMURIUM, Strain/Indicator: TA100, Metabolic Activation: RAT, LIVER, S-9, AROCLOR 1254, Method: STANDARD PLATE
  mutagenic call: inactive; negative

## Cc1cc(N=Nc2c(O)ccc3ccccc23)c(S(=O)(=O)O)cc1Cl
End Point: IN VITRO CHROMOSOMAL ABERRATIONS, Test System: CHO CELLS, Metabolic Activation: NONE
  mutagenic call: inactive; negative
End Point: IN VITRO CHROMOSOMAL ABERRATIONS, Test System: CHO CELLS, Metabolic Activation: RAT, LIVER, S-9, AROCLOR 1254
  mutagenic call: inactive; negative
[7]
  mutagenic call: inactive; negative
[5]
  mutagenic call: inactive; negative
[8]
  mutagenic call: inactive; negative
Test System: AMES SALMONELLA TYPHIMURIUM, Strain/Indicator: TA98, Metabolic Activation: HAMSTER, LIVER, S-9, AROCLOR 1254 (5, 10 OR 30%), Method: PREINCUBATION
  mutagenic call: inactive; negative
[9]
  mutagenic call: inactive; negative
[10]
  mutagenic call: inactive; negative
[1]
  mutagenic call: inactive; negative
[11]
  mutagenic call: inactive; negative
Test System: AMES SALMONELLA TYPHIMURIUM, Strain/Indicator: TA100, Metabolic Activation: RAT, LIVER, S-9, AROCLOR 1254, FLAVIN MONONUCLEOTIDE, Method: PREINCUBATION (PRIVAL METHOD)
  mutagenic call: inactive; negative
Test System: AMES SALMONELLA TYPHIMURIUM, Strain/Indicator: TA100, Metabolic Activation: RAT, LIVER, S-9, AROCLOR 1254, Method: PREINCUBATION
  mutagenic call: inactive; negative
[12]
  mutagenic call: inactive; negative
[3]
  mutagenic call: inactive; negative
[13]
  mutagenic call: inactive; negative
Test System: AMES SALMONELLA TYPHIMURIUM, Strain/Indicator: TA1537, Metabolic Activation: NONE, Method: PREINCUBATION
  mutagenic call: inactive; negative

## Cn1c2c3ccccc3nc-2cc2ccccc21
End Point: IN VITRO MICRONUCLEUS, Test System: CHINESE HAMSTER V-79-MZ, Metabolic Activation: NONE
  mutagenic call: active; positive
Test System: CHINESE HAMSTER V-79-MZ, Strain/Indicator: V-79 MZ (HPRT)/6-THIOGUANINE, Metabolic Activation: NONE
  mutagenic call: inactive; negative

## CC(=O)Nc1ccccc1N
[7]
  mutagenic call: active; positive
[5]
  mutagenic call: active; positive
[8]
  mutagenic call: active; positive
Test System: AMES SALMONELLA TYPHIMURIUM, Strain/Indicator: TA98, Metabolic Activation: HAMSTER, LIVER, S-9, AROCLOR 1254 (10%), Method: PREINCUBATION
  mutagenic call: active; positive
[6]
  mutagenic call: inactive; negative
[9]
  mutagenic call: active; positive
[10]
  mutagenic call: active; positive
[1]
  mutagenic call: inactive; negative
[11]
  mutagenic call: active; positive
[12]
  mutagenic call: active; positive
[3]
  mutagenic call: inactive; negative
[13]
  mutagenic call: active; positive
